ChEMBL document CHEMBL1201862, “PubChem BioAssay data set” (2004)
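A five-concentration, 48-hour dose response in 96-well plates underlies each endpoint, interpolated linearly between surrounding concentrations. The concentration for 50% growth inhibition is given as GI50.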 Calls of active or inactive are those of the source. No stated cut-off is given here; in the data, active = GI50 up to about 1.1 µM and inactive = higher.

What was measured:
Experiment in all cases: DTP human tumour cell line panel, 48 h
UO-31 = test system: UO-31
KM-20L2 = test system: KM-20L2
SK-MEL-5 = test system: SK-MEL-5
DMS-114 = test system: DMS-114
IGROV-1 = test system: IGROV-1
KM12 = test system: KM12
SF-295 = test system: SF-295
SNB-19 = test system: SNB-19
OVCAR-8 = test system: OVCAR-8
TK-10 = test system: TK-10
NCI-H23 = test system: NCI-H23
Malme-3M = test system: Malme-3M
HCT-15 = test system: HCT-15
ACHN = test system: ACHN
HT-29 = test system: HT-29
M19-MEL = test system: M19-MEL
M14 = test system: M14
SNB-78 = test system: SNB-78
SN12C = test system: SN12C
UACC-62 = test system: UACC-62
OVCAR-3 = test system: OVCAR-3
SNB-75 = test system: SNB-75
RPMI-8226 = test system: RPMI-8226
OVCAR-5 = test system: OVCAR-5
CCRF-CEM = test system: CCRF-CEM
HOP-62 = test system: HOP-62
CAKI-1 = test system: CAKI-1
K562 = test system: K562
A498 = test system: A498
HCT-116 = test system: HCT-116
A549 = test system: A549
HCC 2998 = test system: HCC 2998
SF-539 = test system: SF-539
DLD-1 = test system: DLD-1
XF498 = test system: XF498
SK-OV-3 = test system: SK-OV-3
SK-MEL-28 = test system: SK-MEL-28
NCI-H460 = test system: NCI-H460
UACC-257 = test system: UACC-257
SF-268 = test system: SF-268
DMS-273 = test system: DMS-273
HL-60 = test system: HL-60
COLO 205 = test system: COLO 205
SK-MEL-2 = test system: SK-MEL-2
NCI-H226 = test system: NCI-H226
RXF 393 = test system: RXF 393
MOLT-4 = test system: MOLT-4
HOP-92 = test system: HOP-92
786-0 = test system: 786-0
OVCAR-4 = test system: OVCAR-4
U-251 = test system: U-251
EKVX = test system: EKVX
SW-620 = test system: SW-620
LXFL 529 = test system: LXFL 529
NCI-H522 = test system: NCI-H522
HOP-18 = test system: HOP-18
LOX IMVI = test system: LOX IMVI
SR = test system: SR

## Cc1cc(NS(=O)(=O)c2ccc(Nc3c4ccccc4nc4c(C(=O)N5CCN(CCOS(C)(=O)=O)CC5)cccc34)cc2)no1
UO-31
  GI50: > 100 µM (inactive)
KM-20L2
  GI50: > 100 µM (inactive)
SK-MEL-5
  GI50: > 100 µM (inactive)
DMS-114
  GI50: > 100 µM (inactive)
IGROV-1
  GI50: > 100 µM (inactive)
KM12
  GI50: > 100 µM (inactive)
SF-295
  GI50: > 100 µM (inactive)
SNB-19
  GI50: > 100 µM (inactive)
OVCAR-8
  GI50: > 100 µM (inactive)
TK-10
  GI50: > 100 µM (inactive)
NCI-H23
  GI50: > 100 µM (inactive)
Malme-3M
  GI50: > 100 µM (inactive)
HCT-15
  GI50: > 100 µM
ACHN
  GI50: > 100 µM (inactive)
HT-29
  GI50: > 100 µM (inactive)
M19-MEL
  GI50: > 100 µM (inactive)
M14
  GI50: > 100 µM (inactive)
SNB-78
  GI50: > 100 µM (inactive)
SN12C
  GI50: > 100 µM (inactive)
UACC-62
  GI50: > 100 µM (inactive)
OVCAR-3
  GI50: > 100 µM (inactive)
SNB-75
  GI50: > 100 µM (inactive)
RPMI-8226
  GI50: > 100 µM (inactive)
OVCAR-5
  GI50: > 100 µM (inactive)
CCRF-CEM
  GI50: 43.4 µM (inactive)
HOP-62
  GI50: > 100 µM (inactive)
CAKI-1
  GI50: > 100 µM (inactive)
K562
  GI50: 37.5 µM (inactive)
A498
  GI50: > 100 µM (inactive)
HCT-116
  GI50: > 100 µM (inactive)
A549
  GI50: > 100 µM (inactive)
HCC 2998
  GI50: > 100 µM (inactive)
SF-539
  GI50: > 100 µM (inactive)
DLD-1
  GI50: > 100 µM (inactive)
XF498
  GI50: > 100 µM (inactive)
SK-OV-3
  GI50: > 100 µM (inactive)
SK-MEL-28
  GI50: > 100 µM (inactive)
NCI-H460
  GI50: > 100 µM (inactive)
UACC-257
  GI50: > 100 µM (inactive)
SF-268
  GI50: > 100 µM (inactive)
DMS-273
  GI50: > 100 µM (inactive)
HL-60
  GI50: > 100 µM (inactive)
COLO 205
  GI50: > 100 µM (inactive)
SK-MEL-2
  GI50: > 100 µM (inactive)
NCI-H226
  GI50: > 100 µM (inactive)
RXF 393
  GI50: > 100 µM (inactive)
MOLT-4
  GI50: 54.1 µM (inactive)
HOP-92
  GI50: > 100 µM (inactive)
786-0
  GI50: > 100 µM (inactive)
OVCAR-4
  GI50: > 100 µM (inactive)
U-251
  GI50: > 100 µM (inactive)

## C#CCN1C(=O)CN2C(Cl)(Cl)C2(c2ccccc2)c2cc(Cl)ccc21 (stereo not given)
UO-31
  GI50: 68.1 µM (inactive)
KM-20L2
  GI50: 33.3 µM (inactive)
SK-MEL-5
  GI50: 51.3 µM (inactive)
DMS-114
  GI50: 51.5 µM (inactive)
KM12
  GI50: 28.6 µM (inactive)
SF-295
  GI50: 65.8 µM (inactive)
EKVX
  GI50: 50.4 µM (inactive)
OVCAR-8
  GI50: > 100 µM (inactive)
TK-10
  GI50: 89.9 µM (inactive)
SW-620
  GI50: 70.3 µM (inactive)
NCI-H23
  GI50: 86.7 µM (inactive)
Malme-3M
  GI50: > 100 µM (inactive)
LXFL 529
  GI50: > 100 µM (inactive)
NCI-H522
  GI50: 35.3 µM (inactive)
HCT-15
  GI50: 40.6 µM
ACHN
  GI50: 85.9 µM (inactive)
HT-29
  GI50: 40.9 µM (inactive)
M19-MEL
  GI50: 84.3 µM (inactive)
M14
  GI50: 49.1 µM (inactive)
SN12C
  GI50: 37.2 µM (inactive)
OVCAR-3
  GI50: 87.5 µM (inactive)
SNB-75
  GI50: > 10 µM (inactive)
RPMI-8226
  GI50: 70.5 µM (inactive)
OVCAR-5
  GI50: > 100 µM (inactive)
CCRF-CEM
  GI50: 44.3 µM (inactive)
HOP-62
  GI50: 50 µM (inactive)
CAKI-1
  GI50: 30.1 µM (inactive)
HOP-18
  GI50: > 100 µM (inactive)
K562
  GI50: 49.8 µM (inactive)
HCT-116
  GI50: 42.2 µM (inactive)
HCC 2998
  GI50: 31.2 µM (inactive)
DLD-1
  GI50: 45.3 µM (inactive)
SK-MEL-28
  GI50: > 100 µM (inactive)
NCI-H460
  GI50: 54.8 µM (inactive)
UACC-257
  GI50: 36.3 µM (inactive)
SF-268
  GI50: 82 µM (inactive)
LOX IMVI
  GI50: 88.1 µM (inactive)
DMS-273
  GI50: 41.7 µM (inactive)
COLO 205
  GI50: 54.5 µM (inactive)
SK-MEL-2
  GI50: 94.4 µM (inactive)
SR
  GI50: 40.3 µM (inactive)
NCI-H226
  GI50: 39.7 µM (inactive)
RXF 393
  GI50: > 100 µM (inactive)
MOLT-4
  GI50: 25.1 µM (inactive)
HOP-92
  GI50: 61.8 µM (inactive)
OVCAR-4
  GI50: 72.1 µM (inactive)
U-251
  GI50: > 10 µM (inactive)

## CC(C)C(=O)/C=C/c1ccc(Br)cc1
UO-31
  GI50: 16.4 µM (inactive)
KM-20L2
  GI50: 9.86 µM (inactive)
SK-MEL-5
  GI50: 12.7 µM (inactive)
DMS-114
  GI50: 15.2 µM (inactive)
IGROV-1
  GI50: 19.2 µM (inactive)
KM12
  GI50: 13.8 µM (inactive)
SF-295
  GI50: 15.5 µM (inactive)
EKVX
  GI50: 24 µM (inactive)
SNB-19
  GI50: 16 µM (inactive)
OVCAR-8
  GI50: 23.2 µM (inactive)
TK-10
  GI50: 16.9 µM (inactive)
SW-620
  GI50: 5.51 µM (inactive)
NCI-H23
  GI50: 17.7 µM (inactive)
LXFL 529
  GI50: 16.1 µM (inactive)
NCI-H522
  GI50: 12.2 µM (inactive)
ACHN
  GI50: 12.7 µM (inactive)
HT-29
  GI50: 14.7 µM (inactive)
M19-MEL
  GI50: 15.4 µM (inactive)
M14
  GI50: 17.9 µM (inactive)
SNB-78
  GI50: 27 µM (inactive)
SN12C
  GI50: 14.1 µM (inactive)
UACC-62
  GI50: 14.5 µM (inactive)
OVCAR-3
  GI50: 14.2 µM (inactive)
SNB-75
  GI50: 18.1 µM (inactive)
RPMI-8226
  GI50: 5.38 µM (inactive)
OVCAR-5
  GI50: 14.4 µM (inactive)
CCRF-CEM
  GI50: 3.15 µM (inactive)
K562
  GI50: 3.94 µM (inactive)
A498
  GI50: 14.5 µM (inactive)
HCT-116
  GI50: 6.14 µM (inactive)
A549
  GI50: 23.8 µM (inactive)
HCC 2998
  GI50: 17.1 µM (inactive)
SF-539
  GI50: 21.1 µM (inactive)
DLD-1
  GI50: 7.31 µM (inactive)
XF498
  GI50: 16.8 µM (inactive)
SK-OV-3
  GI50: 22.3 µM (inactive)
SK-MEL-28
  GI50: 20.1 µM (inactive)
NCI-H460
  GI50: 14.9 µM (inactive)
UACC-257
  GI50: 16.5 µM (inactive)
SF-268
  GI50: 23 µM (inactive)
LOX IMVI
  GI50: 17.3 µM (inactive)
DMS-273
  GI50: 12.9 µM (inactive)
HL-60
  GI50: 10.8 µM (inactive)
COLO 205
  GI50: 23.4 µM (inactive)
SK-MEL-2
  GI50: 16.1 µM (inactive)
SR
  GI50: 7.28 µM (inactive)
RXF 393
  GI50: 18.3 µM (inactive)
MOLT-4
  GI50: 19.2 µM (inactive)
HOP-92
  GI50: 16.4 µM (inactive)
786-0
  GI50: 11.2 µM (inactive)
OVCAR-4
  GI50: 25.4 µM (inactive)
U-251
  GI50: 10.9 µM (inactive)
